Series [1] in a line: Stability of compound in rat microsomes assessed as half-life. The series is classed as ADME, Microsome.
Series [2] is described as follows: Inhibition of recombinant mouse GALK1 using ATP as substrate incubated for 1 hr and measured by Kinase-Glo assay. (In Kinase-Glo more light means more ATP remaining.)
Series [3] can be described thus: Binding affinity towards human GALK1 K252A/E253A double mutant measured by surface plasmon resonance (SPR) assay. Background: SPR reads the build-up and loss of mass on a sensor chip optically.
A short description of series [4]: Kinetic aqueous solubility of the compound. Particulars: buffer; read-out: Kinetic_solubility. The series is classed as physicochemical.
A short description of series [5]: Inhibition of human GALK1 K252A/E253A double mutant. Particulars: read-out: IC50.
The species entered for another series is Homo sapiens. Description: Inhibition of human GALK1 K252A/E253A double mutant relative to control. More on the design: concentration or dose not given beside the values. As to conditions: concentration not given here.
The nature of series [6]: Permeability of compound by PAMPA assay. Particulars: read-out: permeability. The series is classed as ADME.
The target in the next series is Galactokinase (Homo sapiens, UniProt P51570). Description: Inhibition of recombinant human GALK1 using ATP as substrate incubated for 1 hr and measured by Kinase-Glo assay.
The nature of series [7]: Stability of compound in mouse liver microsomes assessed as half-life. The format is ADME, Microsome. In general terms: Microsomes from liver hold many membrane-bound enzymes, among them those of drug oxidation.
Series [8] in a line: Stability of compound in human liver microsomes assessed as half-life. The series is classed as ADME, Microsome.
Series [9] in a line: Stability of compound in rat liver microsomes assessed as half-life. The format is ADME, Microsome.
The next series has as its system Fibroblast. Description: Inhibition of human GALK1 K252A/E253A double mutant in human skin fibroblasts at 10 uM assessed as reduction in Gal-1P accumulation. The series is classed as cell-based.

Values after ≈ are worked out from the molar mass of the structure shown.

A word on the half-life: it is the time needed for the level to fall by half in the phase considered. As a reminder, the IC50 is the concentration at which inhibition is half-maximal. For orientation: Kd means the free concentration of one partner at which half of the binding sites on the other are occupied at equilibrium, for simple one-to-one binding. One may read the inhibition as the percentage by which the read-out fell short of the control.

Chain of Galactokinase (P51570 whole entry): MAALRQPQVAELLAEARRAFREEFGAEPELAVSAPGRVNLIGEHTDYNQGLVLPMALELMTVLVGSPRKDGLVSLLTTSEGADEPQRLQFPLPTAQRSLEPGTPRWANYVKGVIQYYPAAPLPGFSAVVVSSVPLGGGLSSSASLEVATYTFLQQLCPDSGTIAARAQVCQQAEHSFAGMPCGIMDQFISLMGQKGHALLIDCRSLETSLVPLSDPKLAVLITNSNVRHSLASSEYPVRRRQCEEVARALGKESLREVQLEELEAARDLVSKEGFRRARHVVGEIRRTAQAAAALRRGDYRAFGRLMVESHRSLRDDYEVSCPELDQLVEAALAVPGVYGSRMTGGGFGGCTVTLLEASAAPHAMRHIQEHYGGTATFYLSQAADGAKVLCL

On to `CC1=C(C(=O)Nc2cc(C(=O)O)ccn2)C(c2ccccc2Cl)N=C(Nc2nc3ccc(F)cc3o2)N1` (racemic), for which the half-life in series [1] is above 30 min. Moreover, the results for the half-maximal inhibitory concentration (IC50) in [2] (read-out: IC50) and in series [5] were 4.32 µM and 0.26 µM, respectively. This compound also registered a dissociation constant (Kd) in series [3] of 0.023 µM. Moreover, in series [4], the solubility kinetic amounted to 46.1 µg/mL (≈ 88.5 µM). The compound further showed an inhibition in the series filed under Homo sapiens of 100%.
With `CC1=C(C(=O)Nc2cc(C(=O)O)ccn2)C(c2ccccc2Cl)N=C(Nc2nc3cccc(OC(F)(F)F)c3o2)N1` (configuration not stated), in series [1], the half-life was above 30 min. Moreover, the IC50 result in [2] is “Not Active”; on Galactokinase, “Not Active”; in [5], above 15 µM. For the same compound, in series [6], the Papp was below 10 ×10⁻⁶ cm/s. The solubility kinetic in series [4] came out at 47.8 µg/mL (≈ 81.4 µM). This compound also returned an inhibition in the series filed under Homo sapiens of 88%.
`CC1=C(C(=O)Nc2cc(C(=O)O)ccn2)C(c2ccccc2Cl)N=C(Nc2nc3cccc(N)c3o2)N1` (racemic): in series [1], the half-life is above 30 min. The IC50 in [2] (read-out: IC50) was 3.43 µM; in series [5], 0.077 µM. The same compound displayed a Kd in series [3] of 0.012 µM. Moreover, in series [4], the solubility kinetic is above 76 µg/mL. Also, the inhibition in the series filed under Homo sapiens is 100%.
On to `CC1=C(C(=O)NCc2cnn(C)c2)C(c2ccc(C)cc2Cl)N=C(Nc2nc3ccc(F)c(N)c3o2)N1` (configuration not stated), for which the half-life in [7] came to 13 min; in series [1], 17.1 min; in [9], 16 min. In addition, in series [8], the t1/2 turned out to be 47 min. The IC50 amounted to 0.69 µM in series [2] (read-out: IC50) and 0.014 µM in [5]. The solubility kinetic in series [4] is 1.27 µg/mL (≈ 2.43 µM). Besides, the inhibition in the series on Fibroblast was 100%.
Regarding `CC1=C(C(=O)Nc2ccc(Cl)cc2)C(c2ccccc2Cl)N=C(Nc2nc3ccccc3o2)N1` (configuration not stated), in series [1], the half-life was above 30 min. Further, the IC50 is 7.69 µM in series [2] (read-out: IC50) and “Not Active” at Galactokinase. Moreover, the Papp in series [6] turned out to be 2 ×10⁻⁶ cm/s. Besides, in [4], the solubility kinetic was below 1 µg/mL.
Take `CCn1cc(C(C)NC(=O)C2=C(C)NC(Nc3nc4cccc(N)c4o3)=NC2c2ccc(C)cc2Cl)cn1` (configuration not stated): the half-life in series [1] is 17.9 min. Besides, the half-maximal inhibitory concentration (IC50) in [2] (read-out: IC50) stood at 1.09 µM; at Galactokinase (read-out: IC50), 0.05 µM. The Papp in series [6] was found to be 333 ×10⁻⁶ cm/s. Moreover, in series [4], the solubility kinetic was below 1 µg/mL.
Turning to `CCn1cc(CNC(=O)C2=C(C)NC(Nc3nc4ccc(F)c(N)c4o3)=NC2c2ccc(C)cc2Cl)cn1` (racemic), the half-life in series [1] worked out at 14.1 min. Also, the IC50 in [2] (read-out: IC50) is 0.61 µM; in series [5] it was 0.022 µM. The solubility kinetic in series [4] was below 1 µg/mL. The inhibition in the series on Fibroblast stood at 70%.
